Results: patent US7919488B2, “Therapeutic compounds” (Pfizer Inc., priority 2006, dated 2011)

Tests used:
Type in all cases: biochemical
[1] = target: T1, CYP3A4 (Homo sapiens, UniProt P08684); test: IC50 against CYP3A4 by inhibition of testosterone metabolism in human liver microsomes; conditions: 0.1 mg/mL human liver microsomes, 25 μM testosterone, 1 mM NADPH, 6-β-OH-testosterone production, eight minutes; read-out: IC50, μM (HLM, testosterone)
T1 construct: 0.1 mg/mL human liver microsomes; from tissue; host or cells: human liver microsomes
Procedure, shortened: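 Testosterone used as substrate, incubated for eight minutes. 6-β-OH-testosterone formation quantified by LC-MS/MS (MRM) as peak area ratio to internal standard against a metabolite standard curve. IC50 derived from inhibition of this metabolism.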

[2] = target: T1, CYP3A4; test: IC50 against CYP3A4 by inhibition of midazolam metabolism in human liver microsomes; conditions: 0.1 mg/mL human liver microsomes, 2 μM midazolam, 1 mM NADPH, 1-hydroxymidazolam production, eight minutes; read-out: IC50, μM (HLM, midazolam)
Procedure, shortened: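 Human liver microsomes (0.1 mg/mL) incubated 8 min with 2 μM midazolam and 1 mM NADPH in 100 mM potassium phosphate, pH 7.4. 1-Hydroxymidazolam quantified by LC-MS/MS (MRM) as peak area ratio to internal standard against a metabolite standard curve.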

[3] = target: T2, recombinant CYP3A4-b5 enzyme (Baculosomes®) (Homo sapiens, UniProt P08684); test: Kiapp against recombinant CYP3A4 enzyme (Baculosomes), BFC substrate; conditions: recombinant CYP3A4-b5 (Invitrogen), 5 uM BFC, 200 uM NADPH, pre-incubation at least 30 minutes, pH 7.0, room temperature
T2 construct: purchased Invitrogen (Carlsbad, Calif.)
Procedure, shortened: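 Recombinant CYP3A4-b5 Baculosomes were run in 100 mM sodium phosphate pH 7.0 with 5 mM TCEP and 2% DMF at room temperature, with ~30 min pre-incubation. The reaction was started with NADPH (200 uM) and BFC (5 uM), both final. Kiapp came from initial fluorescence velocities over the first 5 min across inhibitor concentrations.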

[4] = target: T3, recombinant CYP3A4+b5 enzyme (Supersomes®) (Homo sapiens, UniProt P08684); test: Kiapp against recombinant CYP3A4 enzyme (Supersomes), BFC substrate; conditions: recombinant CYP3A4+b5 (BD Biosciences), 5 uM BFC, 200 uM NADPH, pre-incubation at least 30 minutes, pH 7.0, room temperature
T3 construct: purchased BD Biosciences (Woburn, Mass.)
Procedure: 1. Determination of Compound Kiapp
A determination of the Kiapp of the compounds of the invention against recombinant CYP3A4 enzyme was performed as follows. The assay was performed in a 100 mM sodium phosphate buffer pH 7.0, 5 mM TCEP and containing 2% dimethylformamide (final concentration) upon addition of substrate and inhibitor. A typical reaction for the determination of Kiapp values was carried at room temperature in a solid black Costar u-bottom 96-well polypropylene plate. In each well, recombinant CYP3A4 enzyme (5.5 nM or 8 nM, final concentration depending on the commercial source of the enzyme) was pre-incubated in the presence of the inhibitor for at least 30 minutes in the assay buffer. When pre-incubation was completed (˜30 min), the reaction was initiated by adding NADPH (200 uM, final concentration), and 7-benzyloxy-4-(trifluoromethyl)-coumarin (BFC) (5 uM, final concentration). The oxidation of the coumarin substrate was recorded by a 96-well plate reader POLARstar (BMG LABTECH, Offenburg, Germany).
The initial reaction velocities were measured during the first 5 min of the reaction when the release of the fluorescent product is linear with time, in the absence and in the presence of various concentrations of inhibitors. For non-partial & partial inhibitors, the Kiapp values were determined by using the equation for tight-binding inhibitor developed by Morrison, J F (Morrison J F. Biochim Biophys Acta. 1969, 185: 269-86) and by Szedlaseck S E et al. (Szedlascek, S. E., Ostafe, V., Serban, M., and Vlad, M. O. Biochem. J. 1988, 254:311-312), respectively.
The fluorescent substrate BFC was purchased from Sigma (St Louis, Mo.). Two commercial sources of recombinant enzymes were used in this study: recombinant CYP3A4-b5 enzyme (Baculosomes®) was purchased from Invitrogen (Carlsbad, Calif.) and the recombinant CYP3A4+b5 enzyme (Supersomes®) was purchased from BD Biosciences (Woburn, Mass.).

T1 sequence (P08684 whole entry): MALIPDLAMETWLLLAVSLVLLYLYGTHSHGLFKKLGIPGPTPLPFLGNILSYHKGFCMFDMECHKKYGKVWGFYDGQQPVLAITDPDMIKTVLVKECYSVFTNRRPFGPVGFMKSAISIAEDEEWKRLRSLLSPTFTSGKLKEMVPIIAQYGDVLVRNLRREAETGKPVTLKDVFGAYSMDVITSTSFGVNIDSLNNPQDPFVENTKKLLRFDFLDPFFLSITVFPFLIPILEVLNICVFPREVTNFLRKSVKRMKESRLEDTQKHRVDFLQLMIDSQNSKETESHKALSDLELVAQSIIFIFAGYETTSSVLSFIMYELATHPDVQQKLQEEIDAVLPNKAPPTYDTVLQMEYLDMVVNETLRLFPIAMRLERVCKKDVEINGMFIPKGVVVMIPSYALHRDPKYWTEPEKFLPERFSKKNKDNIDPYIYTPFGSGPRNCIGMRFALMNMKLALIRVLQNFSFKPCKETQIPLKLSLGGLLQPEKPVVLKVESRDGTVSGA
T2 sequence (P08684 whole entry): as above
T3 sequence (P08684 2-503 limits assumed): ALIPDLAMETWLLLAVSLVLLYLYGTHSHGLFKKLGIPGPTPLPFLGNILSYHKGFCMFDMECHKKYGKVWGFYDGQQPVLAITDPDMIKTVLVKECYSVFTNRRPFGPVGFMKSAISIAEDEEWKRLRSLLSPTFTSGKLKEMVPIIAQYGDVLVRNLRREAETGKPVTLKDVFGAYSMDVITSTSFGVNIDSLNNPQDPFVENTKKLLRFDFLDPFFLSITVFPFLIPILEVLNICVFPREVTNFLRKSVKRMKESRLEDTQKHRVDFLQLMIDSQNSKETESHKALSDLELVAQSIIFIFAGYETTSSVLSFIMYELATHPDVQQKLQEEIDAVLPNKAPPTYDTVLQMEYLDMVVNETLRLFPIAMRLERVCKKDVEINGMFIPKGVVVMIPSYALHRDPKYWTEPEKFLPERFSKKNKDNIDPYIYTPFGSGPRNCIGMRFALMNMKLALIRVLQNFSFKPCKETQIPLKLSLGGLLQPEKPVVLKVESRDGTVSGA

IC50 [1] [µM] | IC50 [2] [µM] | Ki [3] [µM] | Ki [4] [µM] | SMILES
> 0.75 | 0.167 | 0.314 | 0.166 | CS(=O)(=O)NC1CCN(C(=O)Cn2nc(-c3c[nH]cn3)cc2Cc2ccc(F)cc2)CC1 [Example 119, N-(1-{2-[5-(4-fluorobenzyl)-3-(1H-imidazol-4-yl)-1H-pyrazol-1-yl]acetyl}piperidin-4-yl)methanesulfonamide]
0.027 | 0.017 | 0.003 | 0.0068 | O=C(Cn1nc(-c2ccncc2)cc1Cc1ccc(F)cc1)N1CCC(N2CCCS2(=O)=O)CC1 [Example 120, 4-[1-{2-[4-(1,1-dioxidoisothiazolidin-2-yl)piperidin-1-yl]-2-oxoethyl}-5-(4-fluorobenzyl)-1H-pyrazol-3-yl]pyridine]
0.088 | 0.045 | 0.0978 | 0.0136 | O=C(Cn1nc(-c2ccncc2)cc1Cc1ccc(F)cc1)N1CC(N2CCOCC2)C1 [Example 121, 4-(1-{[5-(4-fluorobenzyl)-3-pyridin-4-yl-1H-pyrazol-1-yl]acetyl}azetidin-3-yl)morpholine]
> 0.75 | 0.62 | 0.482 | 0.178 | CC(=O)N(C)C1CCN(C(=O)Cn2nc(-c3c[nH]cn3)cc2Cc2ccc(F)cc2)CC1 [Example 122, N-(1-{[5-(4-fluorobenzyl)-3-(1H-imidazol-4-yl)-1H-pyrazol-1-yl]acetyl}piperidin-4-yl)-N-methylacetamide]
0.554 | 0.397 | 0.459 | 0.167 | CN(C(=O)Cn1nc(-c2c[nH]cn2)cc1Cc1ccc(F)cc1)[C@H]1CC[C@H](O)CC1 [Example 123, 2-[5-(4-fluorobenzyl)-3-(1H-imidazol-4-yl)-1H-pyrazol-1-yl]-N-(trans-4-hydroxycyclohexyl)-N-methylacetamide]
0.032 | 0.025 | 0.123 | 0.0147 | COC(=O)NC1CN(C(=O)Cn2nc(-c3ccncc3)cc2Cc2ccc(F)cc2)C1 [Example 124, methyl (1-{[5-(4-fluorobenzyl)-3-pyridin-4-yl-1H-pyrazol-1-yl]acetyl}azetidin-3-yl)carbamate]
0.027 | 0.022 | 0.0666 | 0.00884 | CS(=O)(=O)NC1CN(C(=O)Cn2nc(-c3ccncc3)cc2Cc2ccc(F)cc2)C1 [Example 125, N-(1-{2-[5-(4-fluorobenzyl)-3-pyridin-4-yl-1H-pyrazol-1-yl]acetyl}azetidin-3-yl)methanesulfonamide]
0.059 | 0.034 | 0.196 | 0.031 | CNC(=O)NC1CN(C(=O)Cn2nc(-c3ccncc3)cc2Cc2ccc(F)cc2)C1 [Example 126, 1-(1-{[5-(4-fluorobenzyl)-3-pyridin-4-yl-1H-pyrazol-1-yl]acetyl}azetidin-3-yl)-3-methylurea]
0.08 | 0.041 | 0.141 | 0.0191 | CC(=O)NC1CN(C(=O)Cn2nc(-c3ccncc3)cc2Cc2ccc(F)cc2)C1 [Example 127, N-(1-{2-[5-(4-fluorobenzyl)-3-pyridin-4-yl-1H-pyrazol-1-yl]acetyl}azetidin-3-yl)acetamide]
0.026 | 0.022 | 0.0488 | 0.00507 | COC(=O)N(C)C1CCN(C(=O)Cn2nc(-c3ccncc3)cc2Cc2ccc(F)cc2)C1 (stereo not shown) [Example 128, methyl (1-{[5-(4-fluorobenzyl)-3-pyridin-4-yl-1H-pyrazol-1-yl]acetyl}pyrrolidin-3-yl)methylcarbamate]
0.066 | 0.022 | 0.312 | 0.017 | CNC(=O)N(C)C1CCN(C(=O)Cn2nc(-c3ccncc3)cc2Cc2ccc(F)cc2)C1 (stereo not shown) [Example 129, 1-(1-{[5-(4-fluorobenzyl)-3-pyridin-4-yl-1H-pyrazol-1-yl]acetyl}pyrrolidin-3-yl)-1,3-dimethylurea]
0.032 | 0.015 | 0.0276 | 0.00618 | COC(=O)N[C@H]1CCN(C(=O)Cn2nc(-c3ccncc3)cc2Cc2ccc(F)cc2)C1 [Example 130, methyl [(3S)-1-{[5-(4-fluorobenzyl)-3-pyridin-4-yl-1H-pyrazol-1-yl]acetyl}pyrrolidin-3-yl]carbamate]
0.037 | 0.0139 | 0.0111 | 0.00283 | CS(=O)(=O)CCN1CCN(C(=O)Cn2nc(-c3ccncc3)cc2Cc2ccc(F)cc2)CC1 [Example 131, 1-{[5-(4-fluorobenzyl)-3-pyridin-4-yl-1H-pyrazol-1-yl]acetyl}-4-[2-(methylsulfonyl)ethyl] piperazine]
0.04 | 0.023 | 0.0996 | 0.0716 | CS(=O)(=O)C1CCN(C(=O)Cn2nc(-c3ccncc3)cc2Cc2ccc(F)cc2)C1 (stereo not shown) [Example 132, 4-[5-(4-fluorobenzyl)-1-{2-[3-(methylsulfonyl)-pyrrolidin-1-yl]-2-oxoethyl}-1H-pyrazol-3-yl]pyridine]
0.044 | 0.083 | 0.21 | 0.174 | CC(C)(CN1CCOCC1)NC(=O)Cn1nc(-c2ccnnc2)cc1Cc1ccc(F)cc1 [Example 133, N-(1,1-dimethyl-2-morpholin-4-ylethyl)-2-[5-(4-fluorobenzyl)-3-pyridazin-4-yl-1H-pyrazol-1-yl]acetamide]
0.051 | 0.0169 | 0.131 | 0.0168 | CC(=O)N1CCN(C(=O)Cn2nc(-c3ccncc3)cc2Cc2ccc(F)cc2)CC1 [Example 134, 1-acetyl-4-{[5-(4-fluorobenzyl)-3-pyridin-4-yl-1H-pyrazol-1-yl]acetyl}piperazine]
0.021 | 0.00867 | 0.108 | 0.0358 | CN(C(=O)Cn1nc(-c2ccncc2)cc1Cc1ccc(F)cc1)[C@H]1CC[C@@H](O)CC1 [Example 135, 2-[5-(4-fluorobenzyl)-3-pyridin-4-yl-1H-pyrazol-1-yl]-N-(cis-4-hydroxycyclohexyl)-N-methylacetamide]
0.023 | < 0.00833 | 0.0291 | 0.0119 | O=C(Cn1nc(-c2ccncc2)cc1Cc1ccc(F)cc1)N1CCC(N2CCCCC2=O)CC1 [Example 136, 1′-{[5-(4-fluorobenzyl)-3-pyridin-4-yl-1H-pyrazol-1-yl]acetyl}-1,4′-bipiperidin-2-one]
0.031 | 0.0101 | 0.0129 | 0.0036 | O=C(Cn1nc(-c2ccncc2)cc1Cc1ccc(F)cc1)N1CCC(N2CCOCC2)CC1 [Example 137, 4-(1-{[5-(4-fluorobenzyl)-3-pyridin-4-yl-1H-pyrazol-1-yl]acetyl}piperidin-4-yl)morpholine]
